Measured values: the supplement of paper PMC10307832

What was measured:
Assay in all cases: relative viability (nuclei count vs DMSO), 5 days (fraction); higher = more cells survive
AZ628 + Crizotinib = compound: CC1=C(C=C(C=C1)NC(=O)C2=CC(=CC=C2)C(C)(C)C#N)NC3=CC4=C(C=C3)N=CN(C4=O)C [AZ628] + C[C@@H](Oc1cc(-c2cnn(C3CCNCC3)c2)cnc1N)c1c(Cl)ccc(F)c1Cl [Crizotinib] (partner 1 µM)
Method in brief: (§1)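 Relative viability was taken as the ratio of nuclei in treated wells to nuclei in vehicle wells. Lung cancer cell lines in 1536-well plates received compounds by pin tool one day after seeding, either one drug alone or a fixed anchor-drug dose plus five library-drug doses (not always all listed) in √10 steps. Nuclei were counted on 4× images after 5 days of treatment, and values are medians of duplicate plates.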

AZ628 + Dasatinib = compound: CC1=C(C=C(C=C1)NC(=O)C2=CC(=CC=C2)C(C)(C)C#N)NC3=CC4=C(C=C3)N=CN(C4=O)C [AZ628] + Cc1nc(Nc2ncc(C(=O)Nc3c(C)cccc3Cl)s2)cc(N2CCN(CCO)CC2)n1 [Dasatinib] (partner 0.075 µM)
Method in brief: as §1

QS11 + Bortezomib = compound: C1CC2=C(C1)C=C(C=C2)OC3=NC(=C4C(=N3)N(C=N4)CC5=CC=C(C=C5)C6=CC=CC=C6)N[C@@H](CC7=CC=CC=C7)CO [QS11] + CC(C)C[C@H](NC(=O)[C@H](Cc1ccccc1)NC(=O)c1cnccn1)B(O)O [Bortezomib] (partner 0.002 µM)
Method in brief: as §1

AZ628 + Bortezomib = compound: CC1=C(C=C(C=C1)NC(=O)C2=CC(=CC=C2)C(C)(C)C#N)NC3=CC4=C(C=C3)N=CN(C4=O)C [AZ628] + CC(C)C[C@H](NC(=O)[C@H](Cc1ccccc1)NC(=O)c1cnccn1)B(O)O [Bortezomib] (partner 0.002 µM)
Method in brief: as §1

NCI-H1651
relative viability (AZ628 + Crizotinib; first compound 0.08 µM): 0.864 | relative viability (AZ628 + Crizotinib; first compound 0.253 µM): 0.87 | relative viability (AZ628 + Crizotinib; first compound 0.8 µM): 0.863 | relative viability (AZ628 + Crizotinib; first compound 2.53 µM): 0.902 | relative viability (AZ628 + Crizotinib; first compound 8 µM): 0.925 | relative viability (AZ628 + Dasatinib; first compound 0.08 µM): 0.517 | relative viability (AZ628 + Dasatinib; first compound 0.253 µM): 0.384 | relative viability (AZ628 + Dasatinib; first compound 0.8 µM): 0.408 | relative viability (AZ628 + Dasatinib; first compound 2.53 µM): 0.392 | relative viability (AZ628 + Dasatinib; first compound 8 µM): 0.535 | relative viability (QS11 + Bortezomib; first compound 0.08 µM): 0.954 | relative viability (QS11 + Bortezomib; first compound 0.253 µM): 1.06 | relative viability (QS11 + Bortezomib; first compound 0.8 µM): 0.804 | relative viability (QS11 + Bortezomib; first compound 2.53 µM): 0.959 | relative viability (QS11 + Bortezomib; first compound 8 µM): 0.994 | relative viability (AZ628 + Bortezomib; first compound 0.08 µM): 1.03 | relative viability (AZ628 + Bortezomib; first compound 0.253 µM): 0.903 | relative viability (AZ628 + Bortezomib; first compound 0.8 µM): 0.897 | relative viability (AZ628 + Bortezomib; first compound 2.53 µM): 0.953 | relative viability (AZ628 + Bortezomib; first compound 8 µM): 0.887

LK-2
relative viability (AZ628 + Crizotinib; first compound 0.08 µM): 0.192 | relative viability (AZ628 + Crizotinib; first compound 0.253 µM): 0.197 | relative viability (AZ628 + Crizotinib; first compound 0.8 µM): 0.244 | relative viability (AZ628 + Crizotinib; first compound 2.53 µM): 0.203 | relative viability (AZ628 + Crizotinib; first compound 8 µM): 0.224 | relative viability (AZ628 + Dasatinib; first compound 0.08 µM): 0.311 | relative viability (AZ628 + Dasatinib; first compound 0.253 µM): 0.288 | relative viability (AZ628 + Dasatinib; first compound 0.8 µM): 0.204 | relative viability (AZ628 + Dasatinib; first compound 2.53 µM): 0.23 | relative viability (AZ628 + Dasatinib; first compound 8 µM): 0.212

NCI-H2023
relative viability (AZ628 + Crizotinib; first compound 0.08 µM): 0.638 | relative viability (AZ628 + Crizotinib; first compound 0.253 µM): 0.663 | relative viability (AZ628 + Crizotinib; first compound 0.8 µM): 0.622 | relative viability (AZ628 + Crizotinib; first compound 2.53 µM): 0.635 | relative viability (AZ628 + Crizotinib; first compound 8 µM): 0.478 | relative viability (AZ628 + Dasatinib; first compound 0.08 µM): 0.617 | relative viability (AZ628 + Dasatinib; first compound 0.253 µM): 0.647 | relative viability (AZ628 + Dasatinib; first compound 0.8 µM): 0.444 | relative viability (AZ628 + Dasatinib; first compound 2.53 µM): 0.436 | relative viability (AZ628 + Dasatinib; first compound 8 µM): 0.396 | relative viability (QS11 + Bortezomib; first compound 0.08 µM): 0.917 | relative viability (QS11 + Bortezomib; first compound 0.253 µM): 0.996 | relative viability (QS11 + Bortezomib; first compound 0.8 µM): 0.877 | relative viability (QS11 + Bortezomib; first compound 2.53 µM): 0.994 | relative viability (QS11 + Bortezomib; first compound 8 µM): 0.898 | relative viability (AZ628 + Bortezomib; first compound 0.08 µM): 1.19 | relative viability (AZ628 + Bortezomib; first compound 0.253 µM): 1.07 | relative viability (AZ628 + Bortezomib; first compound 0.8 µM): 1.06 | relative viability (AZ628 + Bortezomib; first compound 2.53 µM): 0.981 | relative viability (AZ628 + Bortezomib; first compound 8 µM): 0.821

NCI-H2342
relative viability (AZ628 + Dasatinib; first compound 0.08 µM): 0.319 | relative viability (AZ628 + Dasatinib; first compound 0.253 µM): 0.307 | relative viability (AZ628 + Dasatinib; first compound 0.8 µM): 0.327 | relative viability (AZ628 + Dasatinib; first compound 2.53 µM): 0.306 | relative viability (AZ628 + Dasatinib; first compound 8 µM): 0.298

NCI-H1703
relative viability (AZ628 + Crizotinib; first compound 0.08 µM): 0.538 | relative viability (AZ628 + Crizotinib; first compound 0.253 µM): 0.672 | relative viability (AZ628 + Crizotinib; first compound 0.8 µM): 0.405 | relative viability (AZ628 + Crizotinib; first compound 2.53 µM): 0.204 | relative viability (AZ628 + Crizotinib; first compound 8 µM): 0.192 | relative viability (QS11 + Bortezomib; first compound 0.08 µM): 0.323 | relative viability (QS11 + Bortezomib; first compound 0.253 µM): 0.376 | relative viability (QS11 + Bortezomib; first compound 0.8 µM): 0.254 | relative viability (QS11 + Bortezomib; first compound 2.53 µM): 0.236 | relative viability (QS11 + Bortezomib; first compound 8 µM): 0.203 | relative viability (AZ628 + Bortezomib; first compound 0.08 µM): 0.266 | relative viability (AZ628 + Bortezomib; first compound 0.253 µM): 0.207 | relative viability (AZ628 + Bortezomib; first compound 0.8 µM): 0.203 | relative viability (AZ628 + Bortezomib; first compound 2.53 µM): 0.166 | relative viability (AZ628 + Bortezomib; first compound 8 µM): 0.224

NCI-H1299
relative viability (AZ628 + Crizotinib; first compound 0.08 µM): 1.1 | relative viability (AZ628 + Crizotinib; first compound 0.253 µM): 1.06 | relative viability (AZ628 + Crizotinib; first compound 0.8 µM): 1.16 | relative viability (AZ628 + Crizotinib; first compound 2.53 µM): 1.16 | relative viability (AZ628 + Crizotinib; first compound 8 µM): 0.651 | relative viability (QS11 + Bortezomib; first compound 0.08 µM): 1.03 | relative viability (QS11 + Bortezomib; first compound 0.253 µM): 1.06 | relative viability (QS11 + Bortezomib; first compound 0.8 µM): 0.915 | relative viability (QS11 + Bortezomib; first compound 2.53 µM): 0.969 | relative viability (QS11 + Bortezomib; first compound 8 µM): 0.841 | relative viability (AZ628 + Bortezomib; first compound 0.08 µM): 1.07 | relative viability (AZ628 + Bortezomib; first compound 0.253 µM): 1.13 | relative viability (AZ628 + Bortezomib; first compound 0.8 µM): 1.19 | relative viability (AZ628 + Bortezomib; first compound 2.53 µM): 1.25 | relative viability (AZ628 + Bortezomib; first compound 8 µM): 1.04

NCI-H2170
relative viability (AZ628 + Crizotinib; first compound 0.08 µM): 1.23 | relative viability (AZ628 + Crizotinib; first compound 0.253 µM): 1.19 | relative viability (AZ628 + Crizotinib; first compound 0.8 µM): 1.12 | relative viability (AZ628 + Crizotinib; first compound 2.53 µM): 1.15 | relative viability (AZ628 + Crizotinib; first compound 8 µM): 1.21 | relative viability (AZ628 + Dasatinib; first compound 0.08 µM): 0.555 | relative viability (AZ628 + Dasatinib; first compound 0.253 µM): 0.391 | relative viability (AZ628 + Dasatinib; first compound 0.8 µM): 0.46 | relative viability (AZ628 + Dasatinib; first compound 2.53 µM): 0.557 | relative viability (AZ628 + Dasatinib; first compound 8 µM): 0.481

NCI-H522
relative viability (AZ628 + Dasatinib; first compound 0.08 µM): 0.758 | relative viability (AZ628 + Dasatinib; first compound 0.253 µM): 0.952 | relative viability (AZ628 + Dasatinib; first compound 0.8 µM): 0.732 | relative viability (AZ628 + Dasatinib; first compound 2.53 µM): 0.919 | relative viability (AZ628 + Dasatinib; first compound 8 µM): 0.731

A549
relative viability (AZ628 + Crizotinib; first compound 0.08 µM): 0.702 | relative viability (AZ628 + Crizotinib; first compound 0.253 µM): 0.728 | relative viability (AZ628 + Crizotinib; first compound 0.8 µM): 0.697 | relative viability (AZ628 + Crizotinib; first compound 2.53 µM): 0.712 | relative viability (AZ628 + Crizotinib; first compound 8 µM): 0.382

NCI-H358
relative viability (AZ628 + Crizotinib; first compound 0.08 µM): 0.393 | relative viability (AZ628 + Crizotinib; first compound 0.253 µM): 0.435 | relative viability (AZ628 + Crizotinib; first compound 0.8 µM): 0.583 | relative viability (AZ628 + Crizotinib; first compound 2.53 µM): 0.51 | relative viability (AZ628 + Crizotinib; first compound 8 µM): 0.32 | relative viability (AZ628 + Dasatinib; first compound 0.08 µM): 0.184 | relative viability (AZ628 + Dasatinib; first compound 0.253 µM): 0.124 | relative viability (AZ628 + Dasatinib; first compound 0.8 µM): 0.136 | relative viability (AZ628 + Dasatinib; first compound 2.53 µM): 0.161 | relative viability (AZ628 + Dasatinib; first compound 8 µM): 0.1

NCI-H1793
relative viability (AZ628 + Dasatinib; first compound 0.08 µM): 0.422 | relative viability (AZ628 + Dasatinib; first compound 0.253 µM): 0.315 | relative viability (AZ628 + Dasatinib; first compound 0.8 µM): 0.354 | relative viability (AZ628 + Dasatinib; first compound 2.53 µM): 0.344 | relative viability (AZ628 + Dasatinib; first compound 8 µM): 0.388

NCI-H1395
relative viability (AZ628 + Dasatinib; first compound 0.08 µM): 0.411 | relative viability (AZ628 + Dasatinib; first compound 0.253 µM): 0.426 | relative viability (AZ628 + Dasatinib; first compound 0.8 µM): 0.416 | relative viability (AZ628 + Dasatinib; first compound 2.53 µM): 0.423 | relative viability (AZ628 + Dasatinib; first compound 8 µM): 0.362

EBC-1
relative viability (AZ628 + Crizotinib; first compound 0.08 µM): 0.201 | relative viability (AZ628 + Crizotinib; first compound 0.253 µM): 0.212 | relative viability (AZ628 + Crizotinib; first compound 0.8 µM): 0.169 | relative viability (AZ628 + Crizotinib; first compound 2.53 µM): 0.197 | relative viability (AZ628 + Crizotinib; first compound 8 µM): 0.168 | relative viability (QS11 + Bortezomib; first compound 0.08 µM): 0.535 | relative viability (QS11 + Bortezomib; first compound 0.253 µM): 0.444 | relative viability (QS11 + Bortezomib; first compound 0.8 µM): 0.479 | relative viability (QS11 + Bortezomib; first compound 2.53 µM): 0.408 | relative viability (QS11 + Bortezomib; first compound 8 µM): 0.271 | relative viability (AZ628 + Bortezomib; first compound 0.08 µM): 0.636 | relative viability (AZ628 + Bortezomib; first compound 0.253 µM): 0.605 | relative viability (AZ628 + Bortezomib; first compound 0.8 µM): 0.642 | relative viability (AZ628 + Bortezomib; first compound 2.53 µM): 0.685 | relative viability (AZ628 + Bortezomib; first compound 8 µM): 0.472

IA-LM
relative viability (AZ628 + Crizotinib; first compound 0.08 µM): 0.971 | relative viability (AZ628 + Crizotinib; first compound 0.253 µM): 0.749 | relative viability (AZ628 + Crizotinib; first compound 0.8 µM): 0.678 | relative viability (AZ628 + Crizotinib; first compound 2.53 µM): 0.829 | relative viability (AZ628 + Crizotinib; first compound 8 µM): 0.18 | relative viability (QS11 + Bortezomib; first compound 0.08 µM): 0.978 | relative viability (QS11 + Bortezomib; first compound 0.253 µM): 0.856 | relative viability (QS11 + Bortezomib; first compound 0.8 µM): 0.677 | relative viability (QS11 + Bortezomib; first compound 2.53 µM): 0.665 | relative viability (QS11 + Bortezomib; first compound 8 µM): 0.328 | relative viability (AZ628 + Bortezomib; first compound 0.08 µM): 0.931 | relative viability (AZ628 + Bortezomib; first compound 0.253 µM): 0.689 | relative viability (AZ628 + Bortezomib; first compound 0.8 µM): 0.54 | relative viability (AZ628 + Bortezomib; first compound 2.53 µM): 0.551 | relative viability (AZ628 + Bortezomib; first compound 8 µM): 0.165
